Results taken from publication PMC4411110 (PLoS ONE, 2015).
“Also recorded” adds a separate entry of the source. Values belong to the compound of their own block, whether it stands above or below them.

Key:
[1] = in vitro; conditions: rat
Description: (§2) This BBB model was reconstructed by the culture of both primary rat brain micro vascular endothelial cells and rat brain pericytes separated by a macroporous Millicell membrane (24 wells, pore size: 3.0 μm, Millipore, Bedford, MA, USA). Briefly, we pre-incubated the BBB kits at 37 °C in 5% CO2 conditions for 4–5 days, in order to strongly reconstruct the barrier integrity and tight-junctions. To evaluate the barrier integrity and confirm the functionality of the tight-junctions, trans-endothelial electrical resistance (TEER) was measured at day 5-post incubation. Assays were carried out using TEER values in the range of 150-to 300-Ω cm^2 [11]. Once the tight junctions reach a TEER of 300-Ω cm^2, 0.9 mL PBS-based assay medium was added to blank 24-well culture plates. Prior to incubation, selected compounds were diluted in DMSO 100%. The compounds suspended in 0.2 mL assay medium were fortified into the apical side and incubated for 30 min. Next, the medium from both the apical and the basolateral sides were collected and further analyzed by liquid chromatography–mass spectrometry.

[2] = test system: in vitro model of BBB (primary rat brain micro vascular endothelial cells and rat brain pericytes); test: In vitro BBB penetration assay (BBB Kit RBT-24H); conditions: in vitro BBB model, apical to basolateral, 30 min, n = 3
Description: as §2

[3] = test system: MOG35-55-induced EAE; test: EAE mouse model of MS, clinical paralysis score; type: in vivo, female C57BL/6 mice; conditions: EAE mice, oral daily from onset of signs, TM5484 5 mg/kg/d, fingolimod 0.5 mg/kg, 6α-methylprednisolone 5 mg/kg
Description: (§1) All animal experiments conformed to the National Health Guide for the Care and Use of Laboratory Animals and were approved by the Animal Committee at Tohoku University. Studies were performed on 11-week-old female C57BL/6 mice (n = 8–10, each group) and 10-week-old Lewis rats (n = 6–8, each group), obtained from SJC, Japan SLC (Hamamatsu, Shizuoka, Japan). Animals were housed under a 12h light-dark cycle and given regular chow, MF (Oriental Yeast Co., Ltd.).
Experimental autoimmune encephalomyelitis (EAE) was induced in mice as described previously. Briefly, on day 0, 200 microgramme of myelin oligodendrocyte glycoprotein^35–55 (MOG^35–55) peptide was injected s.c, twice, in the lower and upper back of the mice, in an equal volume of complete Freund’s adjuvant (Hooke Laboratories, Inc.). Next, 200 ng of pertussis toxin (Hooke Laboratories, Inc.) dissolved in PBS was applied i.p. On day 1, another 200 ng of pertussis toxin was administered. For rats, 200 microgramme of myelin basic protein^69-88 (MBP^69-88) was injected (Hooke Laboratories, Inc.) twice, in the lower back on day 0. Animals were scored for motor paralysis on a daily basis. Disease severity was assessed using a scale ranging from 0 to 5 (Hooke Laboratories, Inc.): 0, normal; 1, limp tail; 1.5, Limp tail and hind leg inhibition; 2, Limp tail and weakness of hind legs.; 2.5, Limp tail and dragging of hind legs; 3, Limp tail and complete paralysis of hind legs; 3.5, Limp tail and complete paralysis of hind legs and Hind legs are together on one side of body; 4, Limp tail, complete hind leg and partial front leg paralysis; 4.5, Complete hind and partial front leg paralysis, no movement around the cage; 5, Mouse is spontaneously rolling in the cage. Mice were typically observed for 28 days, during which they will remain chronically paralyzed.

[4] = test system: MOG35-55-induced EAE, motor coordination; test: Foot print analysis in EAE mice; type: in vivo, female C57BL/6 mice
Description: Briefly, to obtain footprints, the hind- and forefeet of the mice were coated with black non-toxic paint. The floor of the open field box was covered with white paper. Each mouse was placed in a corner of the open field and allowed to walk across the paper, leaving a track of footprints. If a mouse didn’t walk forward, the task was considered a failure. For each step parameter, three values were measured from each run, excluding footprints made at the beginning and end of the run where the animal was initiating and finishing movement respectively. The mean value of each set of three values was used for analysis.

[5] = test system: gene expression in spinal cord and spleen; test: qRT-PCR gene expression in spinal cord and spleen of EAE mice; type: in vivo, female C57BL/6 mice
Description: Spinal cord was harvested from mice and snap frozen in liquid nitrogen (n = 6–7, each group). Total RNA was extracted from spinal cord and spleen using ISOGEN (Nippon Gene). qRT-PCR analysis was performed as described previously. Briefly, qRT-PCR was performed on a LightCycler rapid thermal cycler system using a LightCycler 480 SYBR Green I Master (Roche Applied Science) according to the manufacturer's instructions. Data were analyzed by using the comparative Ct method as means of relative quantification, normalized to an endogenous reference (b-actin, Actb). The sequences of the primers are described below: […]

[6] = test system: spinal cord (lumbar segments); test: Histology of spinal cord of EAE mice; type: in vivo, female C57BL/6 mice
From the text: Mice were perfused in the heart with saline 0.9% followed by neutral-buffered formalin 10% (n = 3-4/group). Slides from different sections of the spinal cord were immersed and fixed overnight in 10% neutral-buffered formalin. Next, samples were transfered and immersed in a 10, 20 and 30% sucrose solution for consecutive nights. Sections were embedded in O.C.T compounds (Sakura Finetek, Japan) for the subsequent immunostaining study. Four sections of the spinal cord from each group were examined. Since the clinical manifestations are typically initiated as limp tail and hind-limb paralysis in this model, we focused on lumbar spinal segments. Frozen specimens were then incubated overnight at room temperature and stained with Cd11b for macrophage infiltration (Abcam), myelin basic protein (MBP) for demyelination, neurofilament non-phosphorylated (SMI-32) for axonal damage, collagen IV for extracellular matrix depositions (Abcam) and fibrinogen (Funakoshi, Japan). Incubation for 2 hs at room temperature in corresponding biotinylated goat secondary antibody was performed. For immunofluorescence, the sections were incubated overnight at room temperature using primary antibody Iba-1 for microglia activation (Wako Chemicals). After wash in PBS, the sections were then incubated in corresponding fluorescent goat secondary antibody (Wako Chemicals). For Cd11b, the number of positive macrophage was quantified as the total cells per selected area. The area of demyelination was calculated as the percentage of negative staining for MBP per selected area. As for axonal damage and collagen IV deposition, the positive staining per selected area was analyzed and calculated as the percentage per total area. For Quantification analysis was assessed by ImageJ TM software (version 1.440, National Institute of Health, Bethesda, MD, USA).

[7] = test system: MBP69-88-induced EAE; test: EAE rat model of MS, clinical paralysis score; type: in vivo; conditions: EAE Lewis rats, from onset of signs, dpi 15; TM5484 5 mg/kg/d, fingolimod 0.5 mg/kg
Description: as §1
Experimental autoimmune encephalomyelitis (EAE) was induced in mice as described previously. […] Animals were scored for motor paralysis on a daily basis. Disease severity was assessed using a scale ranging from 0 to 5 (Hooke Laboratories, Inc.): 0, normal; 1, limp tail; 1.5, Limp tail and hind leg inhibition; 2, Limp tail and weakness of hind legs.; 2.5, Limp tail and dragging of hind legs; 3, Limp tail and complete paralysis of hind legs; 3.5, Limp tail and complete paralysis of hind legs and Hind legs are together on one side of body; 4, Limp tail, complete hind leg and partial front leg paralysis; 4.5, Complete hind and partial front leg paralysis, no movement around the cage; 5, Mouse is spontaneously rolling in the cage. […]

[8] = In vitro BBB penetration assay (BBB Kit RBT-24H); conditions: rat
Description: as §2

- Papp at 30 min [1]: 31.3 ×10⁻⁶ cm/s
SMILES: CC(C)NCC(O)COc1cccc2ccccc12 (stereo not shown) [Propanolol]

- apparent permeability coefficient (Papp) [2]: 32.1 x 10^–6 cm/s
SMILES: O=C(COCC(=O)Nc1ccc(Cl)cc1C(=O)O)Nc1cccc(-c2ccoc2)c1 [TM5441]

SMILES: C[C@H]1C[C@@H]2[C@H]([C@@H](O)C[C@@]3(C)[C@H]2CC[C@]3(O)C(=O)CO)[C@@]2(C)C=CC(=O)C=C12 [6α-methylprednisolone]
- motor paralysis score [3]: ameliorated the motor paralysis
- motor paralysis score ([3]; listed as 6-α methylprednisone): attenuated the paralysis score to the level observed with TM5484

- Papp at 30 min [8]: 56 ×10⁻⁶ cm/s
SMILES: CCCCCCCCc1ccc(CCC(N)(CO)CO)cc1 [fingolimod]
- motor paralysis score [3]: ameliorated the motor paralysis; also recorded: attenuated the paralysis score to the level observed with TM5484
- stride length ([4]; dpi 28, TM5484 5 mg/kg/d, fingolimod 0.5 mg/kg): 5.48 cm
- stride length (in words) ([4]; oral administration): significantly preserved the stride length
- BDNF expression ([5]; spinal cord): did not restore BDNF expression
- ChAT expression ([5]; spinal cord): up-regulated ChAT expression
- PAI-1 mRNA expression ([5]; spinal cord): no effects
- gene expression of inflammatory markers (TNF-α, IL-6, Ccl2, Cd68) ([5]; spinal cord and spleen, dpi 28, treatment from onset of paralysis): able to modulate these inflammatory effects
- BDNF expression ([5]; spinal cord, listed as Fingolimod): no effects
- expression of IL-10 ([5]; spleen): upregulated
- fibrin (fibrinogen) deposition [6]: no changes were observed
- collagen IV deposition ([6]; dpi 28): able to ameliorate collagen IV deposition
- demyelination (anti-MBP staining) ([6]; dpi 28): reduced
- macrophage accumulation and microglia activation (Cd11b and Iba-1 staining) ([6]; dpi 28, TM5484 5 mg/kg/d, fingolimod 0.5 mg/kg/d): significantly reduced; also recorded: ameliorated
- paralysis score at the peak of the paralysis [7]: reduced the paralysis score to a level similar to TM5484
